From the NIST ThermoML archive (doi:10.1016/j.jct.2018.11.011)

Tests used:
[1] = Molar enthalpy of transition or fusion; conditions: Crystal; DSC

O=C([O][Sb]([c]1ccccc1)([c]1ccccc1)([c]1ccccc1)[c]1ccccc1)c1ccccc1 [tetraphenylantimony benzoate]
101.33 kPa
Conditions	mass density [kg/m3]	molar entropy [J/K/mol]
5 K, Crystal, Small (less than 1 g) adiabatic calorimetry	–	0.567
10 K, Crystal, Small (less than 1 g) adiabatic calorimetry	–	4.1
15 K, Crystal, Small (less than 1 g) adiabatic calorimetry	–	11.1
20 K, Crystal, Small (less than 1 g) adiabatic calorimetry	–	20.79
25 K, Crystal, Small (less than 1 g) adiabatic calorimetry	–	31.83
30 K, Crystal, Small (less than 1 g) adiabatic calorimetry	–	43.78
35 K, Crystal, Small (less than 1 g) adiabatic calorimetry	–	56.29
40 K, Crystal, Small (less than 1 g) adiabatic calorimetry	–	69.07
45 K, Crystal, Small (less than 1 g) adiabatic calorimetry	–	81.95
50 K, Crystal, Small (less than 1 g) adiabatic calorimetry	–	94.78
60 K, Crystal, Small (less than 1 g) adiabatic calorimetry	–	120.2
70 K, Crystal, Small (less than 1 g) adiabatic calorimetry	–	145.3
80 K, Crystal, Small (less than 1 g) adiabatic calorimetry	–	169.9
90 K, Crystal, Small (less than 1 g) adiabatic calorimetry	–	194.1
100 K, Crystal, Small (less than 1 g) adiabatic calorimetry	–	217.6
120 K, Crystal, Small (less than 1 g) adiabatic calorimetry	–	262.3
140 K, Crystal, Small (less than 1 g) adiabatic calorimetry	–	305.1
160 K, Crystal, Small (less than 1 g) adiabatic calorimetry	–	346.3
180 K, Crystal, Small (less than 1 g) adiabatic calorimetry	–	386.3
200 K, Crystal, Small (less than 1 g) adiabatic calorimetry	–	425.4
220 K, Crystal, Small (less than 1 g) adiabatic calorimetry	–	463.9
240 K, Crystal, Small (less than 1 g) adiabatic calorimetry	–	501.9
260 K, Crystal, Small (less than 1 g) adiabatic calorimetry	–	539.8
273.15 K, Crystal, Small (less than 1 g) adiabatic calorimetry	–	564.6
280 K, Crystal, Small (less than 1 g) adiabatic calorimetry	–	577.5
298.15 K, Crystal, Small (less than 1 g) adiabatic calorimetry	–	611.7
298.15 K, Crystal, X-ray diffraction	1438	–
300 K, Crystal, Small (less than 1 g) adiabatic calorimetry	–	615.3
320 K, Crystal, Small (less than 1 g) adiabatic calorimetry	–	653.4
340 K, Crystal, Small (less than 1 g) adiabatic calorimetry	–	691
360 K, Crystal, Small (less than 1 g) adiabatic calorimetry	–	729
380 K, Crystal, Small (less than 1 g) adiabatic calorimetry	–	768
400 K, Crystal, Small (less than 1 g) adiabatic calorimetry	–	807
420 K, Crystal, Small (less than 1 g) adiabatic calorimetry	–	848
437.5 K, Crystal, Small (less than 1 g) adiabatic calorimetry	–	881
437.5 K, Liquid, DSC	–	940
440 K, Liquid, DSC	–	948
460 K, Liquid, DSC	–	989
480 K, Liquid, DSC	–	1030

Conditions	Normal melting temperature [°C]
Crystal, DTA	164.4

Conditions	Molar enthalpy of transition or fusion [kcal/mol]
[1]	6.31
